Counter-ions that a name gives are not always drawn.
Assays:
Assay type in all cases: physicochemical
[1] = Thermogravimetric analysis (TGA) of the salts: loss on drying, desolvation and decomposition temperature; conditions: for Tdecomposition: approximated by onset of first derivative of thermogravimetric curve vs. temperature, salt sample as obtained from the solvent/temperature; for Tdesolvation: value in brackets after LOD
Excerpt: In addition, “loss on drying” (LOD) refers to weight loss determined between ambient and decomposition temperatures. The later is approximated by the onset of the first derivative of the thermogravimetric curve vs. temperature. […] Salt formation, stoichiometry, and the presence or absence of solvents is confirmed by observing the ^1H-NMR chemical shifts of the corresponding salt forming agents and reaction solvents (the tables contain one characteristic chemical shift for salt forming agents or solvents). […] The extent of protonation of the free base is assessed by the change in the chemical shift of the benzylic (Hbz) protons. […] Finally, “-” indicates a measurement not taken.
A stoichiometric amount of acetic acid was subsequently added to the suspension. The mixture was stirred at either 60° C. or ambient temperature (where a clear solution formed, stirring continued at 4° C.). Solids were collected by filtration and analyzed by XRPD, TGA and in some instances ^1H-NMR.

[2] = Hygroscopicity / moisture uptake observed on isolation of the salts; conditions: observation on isolated solid / during filtration
Experimental: A stoichiometric amount of sodium hydroxide was subsequently added to the suspension. The mixture was stirred at 50° C. Once a clear solution formed, stirring continued at 4° C. Solids were collected by filtration and analyzed by XRPD and TGA.
It is noted that the initially formed yellow powder is a polymorph of the mesylate salt that contains more than the equimolar amount of methane sulfonic acid. […] Upon gentle heating to 40 or 50° C. and within 2 to 4 hours, the yellow powder converts to a white crystalline solid that contains the equimolar amount of the methane sulfonic acid. This salt is non-hygroscopic. It is also advised that addition of the methane sulfonic acid is done at ambient temperature and the temperature increased afterwards. It was observed that addition at higher temperature afforded the immediate precipitation of the salt as a soft and gummy material.

[3] = Thermogravimetric analysis (TGA) of the salts: loss on drying, desolvation and decomposition temperature; conditions: isothermal hold at 120° C. for 10 minutes

Row | SMILES | Tdecomposition [1] | also measured
1 | Cc1[nH]c2ccccc2c1CCNCc1ccc(/C=C/C(=O)NO)cc1 [benzoate salt form A, N-hydroxy-3-[4-[[[2-(2-methyl-1H-indol-3-yl)ethyl]amino]methyl]phenyl]-2E-2-propenamide] | 160.2 °C | 
2 | Cc1[nH]c2ccccc2c1CCNCc1ccc(/C=C/C(=O)NO)cc1 [sulfate salt form A, N-hydroxy-3-[4-[[[2-(2-methyl-1H-indol-3-yl)ethyl]amino]methyl]phenyl]-2E-2-propenamide] | ~160 °C | Hygroscopicity [2]: hygroscopic
3 | Cc1[nH]c2ccccc2c1CCNCc1ccc(/C=C/C(=O)NO)cc1 [gentisate salt form A, N-hydroxy-3-[4-[[[2-(2-methyl-1H-indol-3-yl)ethyl]amino]methyl]phenyl]-2E-2-propenamide] | 235.5 °C | 
4 | Cc1[nH]c2ccccc2c1CCNCc1ccc(/C=C/C(=O)NO)cc1 [calcium salt, N-hydroxy-3-[4-[[[2-(2-methyl-1H-indol-3-yl)ethyl]amino]methyl]phenyl]-2E-2-propenamide] |  | Hygroscopicity [2]: less hygroscopic than the sodium or potassium salt
5 | Cc1[nH]c2ccccc2c1CCNCc1ccc(/C=C/C(=O)NO)cc1 [acetate salt form SA, N-hydroxy-3-[4-[[[2-(2-methyl-1H-indol-3-yl)ethyl]amino]methyl]phenyl]-2E-2-propenamide] | 147.9 °C | Tdesolvation [1]: 107.9 °C
6 | Cc1[nH]c2ccccc2c1CCNCc1ccc(/C=C/C(=O)NO)cc1 [phosphate salt form HA, N-hydroxy-3-[4-[[[2-(2-methyl-1H-indol-3-yl)ethyl]amino]methyl]phenyl]-2E-2-propenamide] | 179.6 °C | 
7 | Cc1[nH]c2ccccc2c1CCNCc1ccc(/C=C/C(=O)NO)cc1 [hemi-malate salt form SA, N-hydroxy-3-[4-[[[2-(2-methyl-1H-indol-3-yl)ethyl]amino]methyl]phenyl]-2E-2-propenamide] | 95 °C | 
8 | Cc1[nH]c2ccccc2c1CCNCc1ccc(/C=C/C(=O)NO)cc1 [hydrochloride salt form A, N-hydroxy-3-[4-[[[2-(2-methyl-1H-indol-3-yl)ethyl]amino]methyl]phenyl]-2E-2-propenamide] | 232.3 °C | 
9 | Cc1[nH]c2ccccc2c1CCNCc1ccc(/C=C/C(=O)NO)cc1 [hemi-fumarate salt form HA, N-hydroxy-3-[4-[[[2-(2-methyl-1H-indol-3-yl)ethyl]amino]methyl]phenyl]-2E-2-propenamide] | 159.8 °C | 
10 | Cc1[nH]c2ccccc2c1CCNCc1ccc(/C=C/C(=O)NO)cc1 [acetate salt form A, N-hydroxy-3-[4-[[[2-(2-methyl-1H-indol-3-yl)ethyl]amino]methyl]phenyl]-2E-2-propenamide] |  | Tdecomposition ([1]; salt formed in AcOEt at 60 °C): 147.9 °C; Tdecomposition ([1]; salt formed in IPA at 60 °C): 148.7 °C; Tdesolvation [1]: 72.5 °C
11 | Cc1[nH]c2ccccc2c1CCNCc1ccc(/C=C/C(=O)NO)cc1 [hemi-malonate salt form A, N-hydroxy-3-[4-[[[2-(2-methyl-1H-indol-3-yl)ethyl]amino]methyl]phenyl]-2E-2-propenamide] |  | Tdecomposition ([1]; salt prepared in EtOH): 169.5 °C; Tdecomposition ([1]; salt prepared in IPA): 174.1 °C
12 | Cc1[nH]c2ccccc2c1CCNCc1ccc(/C=C/C(=O)NO)cc1 [zinc salt, N-hydroxy-3-[4-[[[2-(2-methyl-1H-indol-3-yl)ethyl]amino]methyl]phenyl]-2E-2-propenamide] |  | Hygroscopicity [2]: less hygroscopic than the sodium or potassium salt
13 | Cc1[nH]c2ccccc2c1CCNCc1ccc(/C=C/C(=O)NO)cc1 [hemi-fumarate salt form B, N-hydroxy-3-[4-[[[2-(2-methyl-1H-indol-3-yl)ethyl]amino]methyl]phenyl]-2E-2-propenamide] | 213.2 °C | 
14 | Cc1[nH]c2ccccc2c1CCNCc1ccc(/C=C/C(=O)NO)cc1 [benzoate salt form SA, N-hydroxy-3-[4-[[[2-(2-methyl-1H-indol-3-yl)ethyl]amino]methyl]phenyl]-2E-2-propenamide] | at 110 °C | LOD % (isothermal) [3]: 5.2%
15 | Cc1[nH]c2ccccc2c1CCNCc1ccc(/C=C/C(=O)NO)cc1 [benzoate salt form SB, N-hydroxy-3-[4-[[[2-(2-methyl-1H-indol-3-yl)ethyl]amino]methyl]phenyl]-2E-2-propenamide] | dec. at 100 °C | LOD % (isothermal) [3]: 6.3%
16 | Cc1[nH]c2ccccc2c1CCNCc1ccc(/C=C/C(=O)NO)cc1 [oxalate salts, N-hydroxy-3-[4-[[[2-(2-methyl-1H-indol-3-yl)ethyl]amino]methyl]phenyl]-2E-2-propenamide] |  | Hygroscopicity [2]: appear to absorb water during filtration
17 | Cc1[nH]c2ccccc2c1CCNCc1ccc(/C=C/C(=O)NO)cc1 [hemi-succinate salt form SA, N-hydroxy-3-[4-[[[2-(2-methyl-1H-indol-3-yl)ethyl]amino]methyl]phenyl]-2E-2-propenamide] | 155.8 °C | Tdesolvation [1]: (90.6) (2- ° C.
18 | Cc1[nH]c2ccccc2c1CCNCc1ccc(/C=C/C(=O)NO)cc1 [mesylate salt forms A + B, N-hydroxy-3-[4-[[[2-(2-methyl-1H-indol-3-yl)ethyl]amino]methyl]phenyl]-2E-2-propenamide] | 172.8 °C | 
19 | Cc1[nH]c2ccccc2c1CCNCc1ccc(/C=C/C(=O)NO)cc1 [hemi-tartarate salt form B, N-hydroxy-3-[4-[[[2-(2-methyl-1H-indol-3-yl)ethyl]amino]methyl]phenyl]-2E-2-propenamide] | >160 °C | 
20 | Cc1[nH]c2ccccc2c1CCNCc1ccc(/C=C/C(=O)NO)cc1 [sulfate salt form SA, N-hydroxy-3-[4-[[[2-(2-methyl-1H-indol-3-yl)ethyl]amino]methyl]phenyl]-2E-2-propenamide] | 162 °C | 
21 | Cc1[nH]c2ccccc2c1CCNCc1ccc(/C=C/C(=O)NO)cc1 [mesylate salt form A, N-hydroxy-3-[4-[[[2-(2-methyl-1H-indol-3-yl)ethyl]amino]methyl]phenyl]-2E-2-propenamide] | 170.9 °C | Hygroscopicity ([2]; listed as mesylate salt yellow powder): very highly hygroscopic
22 | Cc1[nH]c2ccccc2c1CCNCc1ccc(/C=C/C(=O)NO)cc1 [potassium salt, N-hydroxy-3-[4-[[[2-(2-methyl-1H-indol-3-yl)ethyl]amino]methyl]phenyl]-2E-2-propenamide] |  | Hygroscopicity [2]: highly hygroscopic
23 | Cc1[nH]c2ccccc2c1CCNCc1ccc(/C=C/C(=O)NO)cc1 [sodium salt, N-hydroxy-3-[4-[[[2-(2-methyl-1H-indol-3-yl)ethyl]amino]methyl]phenyl]-2E-2-propenamide] |  | Hygroscopicity [2]: highly hygroscopic
24 | Cc1[nH]c2ccccc2c1CCNCc1ccc(/C=C/C(=O)NO)cc1 [maleate salt polymorph from 2-propanol (yellow powder)] [N-hydroxy-3-[4-[[[2-(2-methyl-1H-indol-3-yl)ethyl]amino]methyl]phenyl]-2E-2-propenamide] | 118.9 °C | 
25 | Cc1[nH]c2ccccc2c1CCNCc1ccc(/C=C/C(=O)NO)cc1 [maleate salt form HA, N-hydroxy-3-[4-[[[2-(2-methyl-1H-indol-3-yl)ethyl]amino]methyl]phenyl]-2E-2-propenamide] | 150 °C | 
26 | Cc1[nH]c2ccccc2c1CCNCc1ccc(/C=C/C(=O)NO)cc1 [mesylate salt form B, N-hydroxy-3-[4-[[[2-(2-methyl-1H-indol-3-yl)ethyl]amino]methyl]phenyl]-2E-2-propenamide] |  | Hygroscopicity ([2]; listed as mesylate salt white crystalline solid): non-hygroscopic

— patent US7989639B2 (Novartis AG, priority 2006, dated 2011)
